# Measurements from PubChem BioAssay (NCI).
#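 Abbreviation: GI50, concentration required for 50% inhibition of growth. TGI: total growth inhibition.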
# Key:
# Assay in all cases: NCI-60 cell line screen, 384-well format
# [1] = tested on: 786-0 renal
# [2] = tested on: NCI-H226 lung
# [3] = tested on: BT-549 breast
# [4] = tested on: DU-145 prostate
# [5] = tested on: LOX IMVI melanoma
# [6] = tested on: OVCAR-8 ovarian
# [7] = tested on: COLO 205 colon
# [8] = tested on: UO-31 renal
# [9] = tested on: MOLT-4 leukemia
# [10] = tested on: MDA-MB-468 breast
# [11] = tested on: MDA-MB-435 melanoma
# [12] = tested on: A498 renal
# [13] = tested on: SF-295 CNS
# [14] = tested on: NCI-H322M lung
# [15] = tested on: NCI-H23 lung
# [16] = tested on: HOP-62 NSCLC
# [17] = tested on: ACHN renal
# [18] = tested on: K-562 leukemia
# [19] = tested on: U251 glioblastoma
# [20] = tested on: SK-OV-3 ovarian
# [21] = tested on: MCF7 breast
# [22] = tested on: TK-10 renal
# [23] = tested on: HT29 colon
# [24] = tested on: NCI-H460 NSCLC
smiles,measurement,setting,value
CNCc1ccccc1-c1csc([C@@H](C)Nc2nc(C)nc3cc(OC)c(OC)cc23)c1,TGI,[1],2500 nM
same,GI50,[2],1250 nM
same,TGI,[2],2580 nM
same,GI50,[3],1250 nM
same,TGI,[3],2500 nM
same,GI50,[4],1710 nM
same,TGI,[4],3200 nM
same,GI50,[5],1650 nM
same,TGI,[5],3010 nM
same,GI50,[6],1500 nM
same,TGI,[6],2830 nM
same,GI50,[7],1590 nM
same,TGI,[7],2940 nM
same,GI50,[8],1520 nM
same,TGI,[8],2850 nM
same,GI50,[9],1180 nM
same,TGI,[9],2400 nM
same,GI50,[10],287 nM
same,TGI,[10],1560 nM
same,GI50,[11],1570 nM
same,TGI,[11],2910 nM
same,GI50,[12],1030 nM
same,TGI,[12],2190 nM
same,GI50,[13],1700 nM
same,TGI,[13],3070 nM
same,GI50,[14],1210 nM
same,TGI,[14],2480 nM
same,GI50,[15],1250 nM
same,TGI,[15],2540 nM
same,GI50,[16],1480 nM
same,TGI,[16],2800 nM
same,GI50,[17],1510 nM
same,TGI,[17],2840 nM
same,GI50,[18],64 nM
same,TGI,[18],723 nM
same,GI50,[19],1440 nM
same,TGI,[19],2750 nM
same,GI50,[20],1310 nM
same,TGI,[20],2580 nM
same,GI50,[21],1290 nM
same,TGI,[21],2570 nM
same,GI50,[22],1450 nM
same,TGI,[22],2770 nM
same,GI50,[23],1560 nM
same,TGI,[23],2910 nM
same,GI50,[24],1580 nM
same,TGI,[24],2930 nM
